Source: patent publication US8859614B2 (University of Nebraska—Lincoln, priority 2008, dated 2014)
pIC50: −log10 of the molar value. “And” between values parts separate entries of the source, which are not always exact repeats. Identical values can stand only once. “Also recorded” adds a separate entry of the source.

Columns and labels:
[1] = system: murine breast cancer cell line derived from Kras* mice; assay: MTT cell growth assay on a Kras* breast cancer cell line; type: cell-based, mouse; conditions: for MTT colorimetric reading reflecting cell density, Day 2, Average / MTT colorimetric reading reflecting cell density, Day 2, individual duplicate wells / Inhibition of growth of the Kras* breast cancer cell line (in words): 500 nM, 48 h; for MTT colorimetric reading reflecting cell density, Day 2, Average: average of duplicates, Day 0 0.3675, no drug 0.792; for MTT colorimetric reading reflecting cell density, Day 2, individual duplicate wells: wells 1 and 2, Day 0 0.373/0.362, no drug 0.959/0.625
Protocol: A murine breast cancer cell line derived from Kras* mice was used to assay the effect of IGF1RK inhibitors. Approximately 30,000 cells/well were plated in a 24-well plate which corresponds to 20% confluence. The next day (Day 0 for the experiment) two of wells were treated with MTT (Thiazol Blue Tetrazolium), a substrate used in a colorimetric metabolic assay that reflects cell density. […] Forty-eight hours later the duplicate wells were assayed.

[2] = system: Kras*-induced mammary carcinomas; assay: Drug treatment of Kras*-induced mouse mammary carcinomas; type: in vivo; conditions: for Tumor volume per gland (Table 10) / Tumor volume per gland: Mean ± S.E.M.; for Tumor volume per gland (Table 10): pooled vehicle controls 243.3 ± 68.9 (9 mice); for Potency relative to PPP against Kras*-induced mammary carcinomas: from % tumor volume versus control; for Tumor volume per gland, % of pooled vehicle control (Table 10): pooled vehicle control = 100; for Macroscopic and histopathological effect on tumors and tumor components (in words): 3 weeks of treatment; for Tumor volume per gland / Tumor volume per gland, % of control (vehicle): i.p. once daily for 3 weeks, PPP 30 mg/kg, Erlotinib 50 mg/kg; for Tumor volume per gland: vehicle 217.8 ± 65.6; for Tumor volume per gland, % of control (vehicle): vehicle = 100
Protocol: (§1) Details of the preclinical trial using picropodophyllin synthesized as described (Buchardt O, et al. J. Pharm. Sci. (1986), 75:1076-1080) and Erlotinib (purchased from Hwasun Biotechnology Co) are described in Results. The drugs were dissolved in DMSO and cremophor (9:1) and injected intraperitoneally. To calculate tumor volumes, the formula for a prolate spheroid (π/6×a×b2 or ˜a×b2/2, where a and b are the major and minor axis, respectively) was used. The lengths of axes were determined microscopically from sections of tumor nodules using a computer assisted morphometry system (SpotAdvanced VS. 4.0.1, Nikon Eclipse E400). For xenograft experiments, 5×10^6 MDA-MB-231 cells were injected bilaterally into the fat pads of mammary glands 3 and 4 of female SCID/NOD mice. […] For in vitro experiments, MDA-MB-231 cells were grown in DMEM supplemented with 10% fetal bovine serum. […] Cell viability (duplicates) was measured on days 2, 4 and 6 by using the Thiazolyl Blue Tetrazolium Bromide (MTT) colorimetric assay (Mosmann T, J. Immunol. Methods (1983), 65:55-63).
First, the tumors developing in each gland tended to be multifocal and uneven, and progressively coalesced into larger masses precluding reliable evaluation.
After 21 days of treatment, the mice are sacrificed, weighed, and the initial tumors measured individually. In addition, tumors which were not palpable at the time of initial palpation, but had grown during the therapy period, are also isolated.
The efficacy of compounds 18 “(NB3)” and 21 “(NB6)” to ameliorate Kras*-induced mouse mammary carcinomas was tested. While testing NB3 and NB6 (4 mice each), 2 controls were added (2 tumor-bearing mice treated with vehicle).

[3] = system: MDA-MB-231 cells; assay: MDA-MB-231 orthotopic xenografts in SCID/NOD mice; type: in vivo, human
Protocol: as §1
Nevertheless, in conjunction with the mouse data, these observations provide strong justification for further evaluations of the drug against human breast cancer.

[4] = system: MDA-MB-231 cells; assay: MDA-MB-231 in vitro cell viability (MTT assay); type: cell-based, human; conditions: PPP 500 nM; MTT on days 2, 4 and 6
From the text: FIG. 8A-C. In vitro inhibition of Igf1r action. Representative experiments of pharmacological inhibition of IGF1R in MDA-MB-231 cells by picropodophyllin (A) or by IGF1R knockdown using a dominant-negative construct (B) or siRNA (C). The absorbance (mean values±S.E.M.) reflects cell numbers estimated from duplicate samples using the MTT assay (see Experimental Procedures). […] (B) Plasmid 486Stop (encoding dominant-negative IGF1R) or a control plasmid (pcDNA3) were introduced in MDA-MB-231 cells by nucleofection following the manufacturer's protocol (1.5 μg of plasmid DNA per […]; Amaxa Biosystems). The same method was used to introduce into these cells a 19-bp RNA duplex (R4) targeting IGR1R mRNA or a scrambled control duplex (Scr4; see SI Materials and Methods, for details). […]
Details of the preclinical trial using picropodophyllin synthesized as described (Buchardt O, et al. J. Pharm. Sci. (1986), 75:1076-1080) and Erlotinib (purchased from Hwasun Biotechnology Co) are described in Results. […] The lengths of axes were determined microscopically from sections of tumor nodules using a computer assisted morphometry system (SpotAdvanced VS. 4.0.1, Nikon Eclipse E400). […] Cell viability (duplicates) was measured on days 2, 4 and 6 by using the Thiazolyl Blue Tetrazolium Bromide (MTT) colorimetric assay (Mosmann T, J. Immunol. Methods (1983), 65:55-63).

[5] = target: insulin receptor (Homo sapiens, UniProt P06213); conditions: Girnita 2004; Vasilcanu 2008; cited from earlier work
Sequence of insulin receptor (P06213 28-1382, species assumed): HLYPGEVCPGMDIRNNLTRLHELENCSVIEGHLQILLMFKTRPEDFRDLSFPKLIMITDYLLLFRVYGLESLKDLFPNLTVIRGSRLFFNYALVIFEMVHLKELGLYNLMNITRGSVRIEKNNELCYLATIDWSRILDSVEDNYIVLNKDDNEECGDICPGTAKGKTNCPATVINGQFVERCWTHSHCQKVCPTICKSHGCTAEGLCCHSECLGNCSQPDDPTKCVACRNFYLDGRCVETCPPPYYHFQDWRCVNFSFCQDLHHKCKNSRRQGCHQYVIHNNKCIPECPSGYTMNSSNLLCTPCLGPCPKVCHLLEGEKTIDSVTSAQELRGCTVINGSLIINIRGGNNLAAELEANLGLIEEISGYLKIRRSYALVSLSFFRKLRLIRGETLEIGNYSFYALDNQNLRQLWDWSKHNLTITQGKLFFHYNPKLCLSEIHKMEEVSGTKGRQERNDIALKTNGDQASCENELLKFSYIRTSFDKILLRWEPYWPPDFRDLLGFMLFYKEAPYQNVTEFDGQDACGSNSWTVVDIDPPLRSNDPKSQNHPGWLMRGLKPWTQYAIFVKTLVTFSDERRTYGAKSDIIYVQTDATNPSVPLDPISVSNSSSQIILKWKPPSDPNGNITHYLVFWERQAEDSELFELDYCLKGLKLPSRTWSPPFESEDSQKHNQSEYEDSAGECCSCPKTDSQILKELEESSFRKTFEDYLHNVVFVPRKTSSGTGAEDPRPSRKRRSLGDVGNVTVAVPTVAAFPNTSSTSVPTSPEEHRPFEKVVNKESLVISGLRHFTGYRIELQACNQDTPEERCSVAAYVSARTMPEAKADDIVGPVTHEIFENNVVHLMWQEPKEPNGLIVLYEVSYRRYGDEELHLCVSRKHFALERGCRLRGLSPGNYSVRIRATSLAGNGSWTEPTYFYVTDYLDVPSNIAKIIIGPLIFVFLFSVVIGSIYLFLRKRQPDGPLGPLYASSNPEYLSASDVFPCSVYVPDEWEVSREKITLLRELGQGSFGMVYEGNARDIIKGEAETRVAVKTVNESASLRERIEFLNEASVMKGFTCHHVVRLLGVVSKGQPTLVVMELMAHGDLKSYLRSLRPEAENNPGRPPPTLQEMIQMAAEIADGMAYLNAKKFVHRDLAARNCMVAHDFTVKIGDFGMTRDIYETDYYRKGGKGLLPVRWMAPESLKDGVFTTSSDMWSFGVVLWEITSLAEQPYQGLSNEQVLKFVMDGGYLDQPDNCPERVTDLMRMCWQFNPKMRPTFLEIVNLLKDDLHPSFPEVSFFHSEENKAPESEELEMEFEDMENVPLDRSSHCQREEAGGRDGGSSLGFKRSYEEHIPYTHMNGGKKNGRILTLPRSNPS

[6] = system: Kras*-induced mammary carcinomas; assay: Drug treatment of Kras*-induced mouse mammary carcinomas; type: in vivo
[7] = target: T1, human Insulin-like Growth Factor I Receptor Kinase (IGF1 RK) domain (Homo sapiens, UniProt P08069); conditions: background statement; cited from earlier work
T1 construct: human Insulin-like Growth Factor I Receptor Kinase (IGF1 RK) domain
T1 sequence (P08069 999-1274 limits assumed): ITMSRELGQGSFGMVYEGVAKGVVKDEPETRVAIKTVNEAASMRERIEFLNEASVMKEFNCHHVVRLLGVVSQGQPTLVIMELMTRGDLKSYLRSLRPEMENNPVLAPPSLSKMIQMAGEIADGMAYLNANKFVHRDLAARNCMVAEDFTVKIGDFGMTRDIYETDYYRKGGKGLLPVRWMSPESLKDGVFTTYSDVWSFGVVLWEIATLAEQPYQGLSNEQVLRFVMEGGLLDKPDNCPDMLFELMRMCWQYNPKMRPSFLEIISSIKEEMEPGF

SMILES | MTT colorimetric reading reflecting cell density, Day 2, Average [1] | MTT colorimetric reading reflecting cell density, Day 2, individual duplicate wells [1] | Tumor volume per gland (Table 10) [2] [mm^3] | Potency relative to PPP against Kras*-induced mammary carcinomas [2] | Tumor volume per gland, % of pooled vehicle control (Table 10) [2] [%] | Macroscopic and histopathological effect on tumors and tumor components (in words) [2] | Tumor volume per gland [2] [mm^3] | Tumor volume per gland, % of control (vehicle) [2] | Inhibition of growth of the Kras* breast cancer cell line (in words) [1] | further results
COc1cc(OC)cc([C@@H]2c3cc4c(cc3[C@H](O)C3COC(=O)[C@H]32)OCO4)c1 (stereo partly drawn) [Compound 21, 4′-Demethoxy-(−)-picropodophyllin] | 0.4845 | 0.505 and 0.464 | 2.1 ± 1.0 | 7 times | 0.9 |  |  |  |  | 
C#Cc1cccc(Nc2ncnc3cc(OCCOC)c(OCCOC)cc23)c1 [Erlotinib] |  |  |  |  |  | reduced predominantly the pale cell component | 66.9 ± 29.3 | 30.7% |  | 
COc1cc([C@@H]2c3cc4c(cc3[C@H](O)C3COC(=O)[C@H]32)OCO4)cc(OC)c1OC (single isomer, unassigned; (-)) [PPP, (−)-picropodophyllin] | 0.4775 | 0.478 and 0.477 |  |  |  | marked reduction or even absence of the pale and squamous cell components; also recorded: dramatically smaller; also recorded: diminishes the size of pale cell tumors | 16.0 ± 9.1 | ~7% and 7.3% |  | Tumor volume per gland, xenografts ([3]; Mean ± S.E.M., SCID/NOD mice, PPP i.p. for 3 weeks, vehicle 304 ± 40.8): 215 ± 18.6 mm^3; Xenograft tumor growth versus vehicle-treated controls (in words) ([3]; NOD/SCID mice, orthotopically injected MDA-MB-231 cells): attenuated; Tumor volume per gland, xenografts, % of vehicle ([3]; SCID/NOD mice, PPP i.p. for 3 weeks, vehicle = 100): 70.7%; In vitro viability of MDA-MB-231 cells (in words) [4]: drastically reduced; Effect on the homologous insulin receptor (in words) [5]: not affected; Increase in apoptosis in the pale component (activated caspase 3 immunohistochemistry) versus vehicle ([6]; 3 days of administration): ~9 fold; Proliferation (proliferation indices) in tumors ([6]; 3 days of treatment): at control levels; Total tumor volume per mouse ([2]; after 21 days of daily treatment, vehicle 653±219, p=0.05): 54±28 mm^3; % tumor volume in comparison with the control, normalized to the new control data ([2]; previous PPP value re-normalized to pooled vehicle control): 6.5%; Effect on IGF1 RK kinase activity (in words) [7]: inhibits its kinase activity
COc1ccc([C@@H]2c3cc4c(cc3[C@H](O)C3COC(=O)[C@H]32)OCO4)cc1 (stereo partly drawn) [Compound 19, 3′,5′-Didemethoxy-(−)-picropodophyllin] |  |  |  |  |  |  |  |  | essentially no activity | 
COc1cccc([C@@H]2c3cc4c(cc3[C@H](O)C3COC(=O)[C@H]32)OCO4)c1 (stereo partly drawn) [Compound 18, 4′,5′-Didemethoxy-(−)-picropodophyllin] | 0.5245 | 0.483 and 0.566 | 20.9 ± 10.8 | same potency as PPP | 6.5 |  |  |  | as effective as PPP | pIC50 ([1]; Mus musculus, read-out: IC50 for growth inhibition of Kras* breast cancer cell line): ~6.40
